Results published in patent publication US20110105515A1, “TARGETING THE ONCOPROTEIN NUCLEOPHOSMIN” (President and Fellows of Harvard College, priority 2007, published 2011).
Entries after “also recorded” stand apart in the source; their conditions may differ.

Legend:
exportin-1 (XPO1) = target: T1, exportin-1 (XPO1) (Homo sapiens, UniProt O14980); test: Competitive binding affinity-isolation with probe 5 in T-47D lysates, exportin-1; conditions: 10 μM probe 5, 100 μM inhibitor
T1 construct: endogenous in cells; host or cells: T-47D lysate
Excerpt: (§1) The supernatant was discarded.
(§2) See above for solution preparation.

peroxiredoxin 1 (PRX1) = target: T2, peroxiredoxin 1 (PRX1) (Homo sapiens, UniProt Q06830); test: Competitive binding affinity-isolation with probe 5 in T-47D lysates, peroxiredoxin 1; conditions: 10 μM probe 5, 100 μM inhibitor
T2 construct: endogenous in cells; host or cells: T-47D lysate
Excerpt: as §1, §2

HeLa S3 cells [1] = test: Transfection/apoptosis experiments in nucleophosmin-depleted HeLa S3 cells; assay type: cell-based, human; conditions: 24 h, Yo-Pro iodide/propidium iodide flow cytometry
Protocol: The concentration of the cell suspension was determined using a hemacytometer, and a suspension of 1×10^5 cells/mL was prepared.
A siRNA targeting NPM1.1 (Applied Biosystems, Cat. No. AM16708; ID 143640; 11.4 μL from a 50 μM stock solution) was added to Opti-MEM (938.6 μL). At the same time, a control siRNA (Applied Biosystems, Cat. No. AM4611; 11.4 μL from a 50 μM stock) was similarly added to Opti-MEM (938.6 μL).
The culture flasks were rinsed with an additional 5 mL medium, which was likewise added to the centrifuge tubes.
The concentration of the cell suspensions was determined using a hemacytometer. Over the course of the 2 d transfection period, both the transfected and mock-transfected cells grew ˜4-fold.
12-well plates were charged with 3 mL per well of suspensions of the transfected or mock-transfected cells, at 2.5×10^4 cells per mL. […] The following day, solutions of cell culture medium containing (+)-avrainvillamide or vehicle control were prepared. 500-μL aliquots of these solutions were added to the 3-mL samples. The treated samples were returned to the incubator (37° C., 5% CO2) for 24 h.
The supernatant was discarded, and the samples were cooled on ice. Apoptosis detection buffer (500 μL; see above for preparation) was added to each sample. […]
Each sample was analyzed on an LSRII flow cytometer, with 20,000 events recorded per sample. […]

p53 [2] = test: Effect of (+)-avrainvillamide incubation on p53/nucleophosmin, T-47D cells (Western-blot); assay type: cell-based, human; conditions: 24 h
Protocol: (§3) Four 6-well plates (two for each cell line) were charged with 6 mL per well of cell suspension at 2×10^5 cells/mL. […] The following day, stock solutions of (+)-avrainvillamide (1) in fresh cell culture medium were prepared as indicated below:
(§4) To each 6-mL sample, a 200-μL aliquot of the appropriate stock solution was added, resulting in a final concentration of 0-4 μM (+)-avrainvillamide (1). The samples were returned to the incubator (37° C., 5% CO2) for 24 h.
(§5) The cells were resuspended in 1 mL PBS and mixed thoroughly. A 500-μL aliquot from each sample was transferred to a fresh 1.5-mL centrifuge tube. All the samples were centrifuged (5 min at 500×g) and the supernatant was discarded. The resulting 20 samples (10 samples of T-47D cells, treated with 0-4 μM (+)-avrainvillamide, and 10 samples of LNCaP cells, treated with 0-4 μM (+)-avrainvillamide (1), where each sample contained the number of cells from 1 well of a 6-well plate) were separated into two groups. One group of samples was lysed in RIPA buffer (see below) to prepare a series of whole-cell lysates. The other group of samples was first treated with sucrose-hypotonic buffer to prepare a series of cytosolic lysates. The remaining pellets were washed and treated with RIPA buffer to prepare a series of nuclear-enriched lysates (see below).

p53 [3] = test: Effect of (+)-avrainvillamide incubation on p53/nucleophosmin, LNCaP cells (Western-blot); assay type: cell-based, human; conditions: 24 h
Protocol: as §3, §4, §5

[4] = test system: MALME-3M and MALME-3 cells; test: Selectivity assay, malignant melanoma MALME-3M versus fibroblast MALME-3; assay type: cell-based; conditions: for selectivity factor, melanoma cells relative to fibroblast control (LC25, 25 percent cell death, estimate of GI50): MALME-3M versus MALME-3
Protocol: […]. A cell line from a healthy fibroblast from the same patient has also been deposited with the American Type Cell Culture Corporation (ATCC). Fresh stockes of both MALME-3M and MALME-3 from ATCC. Avrainvillamide was test against the two cells lines at the same time, taking all possible precautions to ensure that both sets of samples were treated identically. […] As a measure of cytotoxicity and antiproliferative activity, we calculated both LC50 and LC25 (as an estimate of GI50).
The 9.7-fold selectivity at 25 percent cell death is representative of at least a modest degree of selectivity. For comparison, cytochalsine B and geldanamycin were analyzed in identical experiments. Cytochalasine B is a non-selective cytotoxic agent for which a selectivity factor of 0.2 at 25 percent cell death was observed. Geldanamycin is known to be a potent, selective inhibitor of tumor cell growth for which a selectivity factor of >100 at 25 percent cell death was observed.

T-47D cells = test: Cell cycle effects in T-47D cells; assay type: cell-based, human
HeLa S3 cells [5] = test: Apoptosis in HeLa S3 cells (Yo-Pro cell permeability, annexin-binding); assay type: cell-based, human; conditions: Yo-Pro cell permeability and annexin-binding experiments
LNCaP and T-47D cells = test: Western blot for apoptotic markers in LNCaP and T-47D cells; assay type: cell-based, human
[6] = previous report: 48-h incubation, MTS/PMS; cited from earlier work
proteins of T-47D cells = test: Affinity-isolation from T-47D cells, LC-MS/MS analysis of proteins; conditions: narrower region of the gel; equal concentrations
nucleophosmin = nucleophosmin (Homo sapiens, UniProt P06748); test: Competitive binding affinity-isolation with probe 5 in T-47D lysates, nucleophosmin

## CC1(C)C=Cc2c(ccc3c2[N+]([O-])=C2C3=C[C@@]34NC(=O)C5(CCCN5C3=O)CC4C2(C)C)O1 (single isomer, unassigned; (+)) [compound 1, (+)-Avrainvillamide]
exportin-1 (XPO1)
  blocking of the binding of probe 5 to exportin-1 (XPO1): capable of blocking
Peroxiredoxin 1 (PRX1)
  blocking of the binding of probe 5 to peroxiredoxin 1 (PRX1): capable of blocking
HeLa S3 cells [1]
  apoptosis in HeLa S3 cells reduced in nucleophosmin (siRNA) relative to mock-transfected cells: enhanced sensitivity
p53 [2]; 4 μM
  cellular p53 at the highest concentration: reduction in cellular p53
p53 [2]; Western-blot
  concentration giving a substantial increase in cellular p53: 500 nM
p53 [3]
  concentration giving a substantial increase in cellular p53: 500 nM
[4]; MALME-3M
  activity against MALME-3M cells: nanomolar activity
[4]; listed as Avrainvillamide
  selectivity factor, melanoma cells relative to fibroblast control (LC25, 25 percent cell death, estimate of GI50): 9.7
[4]; listed as avrainvillamide
  selectivity factor, melanoma cells relative to fibroblast control (LC25, 25 percent cell death, estimate of GI50): ~10
T-47D cells
  cell cycle accumulatory effects: immediate decrease in the number of cells in S-phase, followed by an increase in G2/M cells
HeLa S3 cells [5]
  cell death in HeLa S3 cells: cell death through apoptosis
LNCaP and T-47D cells
  apoptotic markers (Western blot): appearance of pro-apoptotic factors
[6]
  fold more potent than the unnatural enantiomer (antiproliferative activity): ~9 fold
Proteins of T-47D cells
  detection of nucleophosmin by LC-MS/MS after affinity isolation: not detected
nucleophosmin; 10 μM probe 5, 100 μM competitor, nuclear-enriched and whole-cell T-47D lysates
  binding of nucleophosmin to probe 5 in the presence of a 10-fold higher concentration of competitor: inhibited; also recorded: most effective
nucleophosmin; T-47D lysate
  concentration required for inhibition of probe 5-nucleophosmin binding: 100 µM
nucleophosmin; T-47D nuclear-enriched lysate
  inhibition of binding of nucleophosmin to probe 5 by analogues (FIG. 4): inhibited essentially equivalently
